Assay results published in ChEMBL document CHEMBL5131525, “Novel CFTR Modulators for Treating Cystic Fibrosis” (ACS Med Chem Lett, 2022).

Each compound was assayed against Cystic fibrosis transmembrane conductance regulator (Homo sapiens, UniProt P13569, F508DEL) (assay: Modulation of CFTR F508 deletion mutant expressed in HBE cells assessed as change in short circuit current incubated for 18 to 24 hrs in presence of forskolin, amiloride and human serum by voltage-clamp based chamber assay).
Type: cell-based

Chain of Cystic fibrosis transmembrane conductance regulator (P13569 as listed by the source): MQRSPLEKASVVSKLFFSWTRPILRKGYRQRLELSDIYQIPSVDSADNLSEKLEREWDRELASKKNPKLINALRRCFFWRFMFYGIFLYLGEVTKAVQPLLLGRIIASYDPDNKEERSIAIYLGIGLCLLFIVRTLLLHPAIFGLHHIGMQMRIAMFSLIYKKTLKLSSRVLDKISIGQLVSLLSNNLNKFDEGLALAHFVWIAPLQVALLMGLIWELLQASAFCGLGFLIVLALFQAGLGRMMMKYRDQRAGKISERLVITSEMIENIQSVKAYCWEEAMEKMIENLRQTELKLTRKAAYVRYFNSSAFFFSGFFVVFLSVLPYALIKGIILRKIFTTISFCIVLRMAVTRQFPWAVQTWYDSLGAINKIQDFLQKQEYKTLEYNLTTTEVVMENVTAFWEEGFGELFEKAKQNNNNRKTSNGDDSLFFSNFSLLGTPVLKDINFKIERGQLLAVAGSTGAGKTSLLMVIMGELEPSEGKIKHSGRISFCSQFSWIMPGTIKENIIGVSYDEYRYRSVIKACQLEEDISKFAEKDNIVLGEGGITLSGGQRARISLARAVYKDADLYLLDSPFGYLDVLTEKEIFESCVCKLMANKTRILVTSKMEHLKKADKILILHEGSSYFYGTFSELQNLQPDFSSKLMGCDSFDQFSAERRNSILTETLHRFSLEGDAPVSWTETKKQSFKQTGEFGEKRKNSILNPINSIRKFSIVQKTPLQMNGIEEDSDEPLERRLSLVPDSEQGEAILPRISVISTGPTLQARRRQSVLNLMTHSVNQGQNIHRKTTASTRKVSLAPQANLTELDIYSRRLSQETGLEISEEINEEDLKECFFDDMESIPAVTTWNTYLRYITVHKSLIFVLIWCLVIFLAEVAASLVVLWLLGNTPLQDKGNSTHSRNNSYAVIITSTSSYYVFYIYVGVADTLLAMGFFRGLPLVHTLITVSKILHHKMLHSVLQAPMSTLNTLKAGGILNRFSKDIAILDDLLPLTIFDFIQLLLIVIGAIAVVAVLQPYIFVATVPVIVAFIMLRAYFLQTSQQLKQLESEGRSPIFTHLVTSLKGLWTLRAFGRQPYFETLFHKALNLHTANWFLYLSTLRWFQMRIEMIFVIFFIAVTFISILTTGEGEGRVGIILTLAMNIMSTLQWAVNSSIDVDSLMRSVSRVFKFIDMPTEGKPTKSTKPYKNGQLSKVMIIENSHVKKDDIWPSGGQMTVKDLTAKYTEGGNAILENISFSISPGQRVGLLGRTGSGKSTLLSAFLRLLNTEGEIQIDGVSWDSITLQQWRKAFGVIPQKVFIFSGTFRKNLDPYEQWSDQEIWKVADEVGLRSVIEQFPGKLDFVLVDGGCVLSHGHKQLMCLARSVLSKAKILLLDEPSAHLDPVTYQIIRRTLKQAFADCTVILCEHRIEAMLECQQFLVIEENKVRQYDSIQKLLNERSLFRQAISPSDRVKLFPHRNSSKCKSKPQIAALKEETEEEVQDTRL

| SMILES | EC50 |
| --- | --- |
| [2H]C1CC[C@@H](C)Oc2nc(c(N)cc2C(F)(F)F)C2=NN=C(O2)[C@@](O)(C(F)(F)F)CC1[2H] (stereo partly specified) | < 500 nM |
| C[C@H]1CCCCC[C@](O)(C(F)(F)F)C2=NN=C(O2)c2nc(c(C(F)(F)F)cc2N)O1 | < 500 nM |
| Nc1cc(C(F)(F)F)c2nc1-c1nnc(o1)C(O)(C(F)(F)F)CCCCCCO2 (stereo unspecified) | < 500 nM |
| Nc1cc(C(F)(F)F)c2nc1-c1nnc(o1)[C@@](O)(C(F)(F)F)CCCCCCS2 | < 500 nM |
| Nc1cc(C(F)(F)F)c2nc1-c1nnc(o1)[C@@](O)(C(F)(F)F)CCCCC[C@H](CO)O2 | < 500 nM |
| CC1(C)CCCC[C@](O)(C(F)(F)F)C2=NN=C(O2)c2nc(c(C(F)(F)F)cc2N)OC1 | < 500 nM |
